Consider 14 molecules from ChEMBL document CHEMBL1201862, “PubChem BioAssay data set” (2004).

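Step 1: Grow cells in 96-well plates. Step 2: Expose to compound for 48 hours at 5 concentrations. Step 3: Interpolate endpoints linearly; if unreached, use highest concentration. GI50 = concentration required for 50% inhibition of growth.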 The source made the active and inactive calls. Rule as the data show it: active = GI50 up to about 1.1 µM and inactive = higher. Where only a bound is given, the exact number is not on record here.

Test systems include NCI-H23; A498; UACC-257; HCT-15; OVCAR-5; KM12; NCI-H522; SK-MEL-5; 786-0; M14; IGROV-1; Malme-3M; HCT-116; SNB-19; OVCAR-4; RPMI-8226; NCI-H226.
Experiment in all cases: growth of human tumour cells (NCI), 48 h

In the case of `O=C(O)Cn1c(=O)[nH]c(=O)c2[nH]cnc21`, the GI50 was > 100 µM (inactive) with NCI-H23; > 100 µM (inactive) in the experiment with A498; > 100 µM (inactive) in the experiment on UACC-257; greater than 100 µM with HCT-15; > 100 µM (inactive) in the experiment on OVCAR-5; > 100 µM (inactive) in the experiment with KM12. The GI50 with NCI-H522, in the experiment with SK-MEL-5, in the experiment on 786-0, with M14, with IGROV-1 and in the experiment with Malme-3M was > 100 µM (inactive) in each case. The GI50 in the experiment on HCT-116, in the experiment with SNB-19 and in the experiment on OVCAR-4 was > 100 µM (inactive) in each case.
As for `OC1=CN=C(c2ccccc2)Oc2ccccc21`, the GI50 with RPMI-8226 was > 100 µM (inactive); in the experiment with NCI-H23, > 100 µM (inactive); with A498, > 100 µM (inactive); with UACC-257 it was > 100 µM (inactive); in the experiment with HCT-15, greater than 100 µM; with KM12, 50.9 µM (inactive). Besides, the GI50 is > 100 µM (inactive) in the experiment with SK-MEL-5; 46.7 µM (inactive) in the experiment with 786-0; > 100 µM (inactive) with M14; 33 µM (inactive) in the experiment on NCI-H226; > 100 µM (inactive) with IGROV-1; > 100 µM (inactive) with Malme-3M. Also, the GI50 was 45.4 µM (inactive) in the experiment on HCT-116, 42.5 µM (inactive) in the experiment with SNB-19 and 47.6 µM (inactive) with OVCAR-4.
Take `O=C1CC2CCN(C(=O)c3ccccc3)CC2CCN1` (centres undefined): the GI50 in the experiment on RPMI-8226 was > 100 µM (inactive); in the experiment on NCI-H23, > 100 µM (inactive); in the experiment on A498 it was > 100 µM (inactive); in the experiment on UACC-257, > 100 µM (inactive); in the experiment with HCT-15, greater than 100 µM; in the experiment on OVCAR-5 it was > 100 µM (inactive). The GI50 in the experiment on KM12, in the experiment with SK-MEL-5, in the experiment with 786-0, with M14, in the experiment on NCI-H226 and with IGROV-1 was > 100 µM (inactive) throughout. Besides, the GI50 in the experiment on Malme-3M, in the experiment with HCT-116, in the experiment with SNB-19 and with OVCAR-4 was > 100 µM (inactive) in each case.
`CN(O)C(=O)Cc1ccccc1`: the GI50 in the experiment on RPMI-8226, in the experiment with NCI-H23, with UACC-257, in the experiment on OVCAR-5, in the experiment on KM12 and in the experiment with NCI-H522 was > 100 µM (inactive) each time. The GI50 in the experiment with SK-MEL-5, with 786-0, with M14, with NCI-H226, in the experiment on IGROV-1 and in the experiment on Malme-3M was > 100 µM (inactive) each time. In addition, the GI50 in the experiment with HCT-116, with SNB-19 and in the experiment with OVCAR-4 was > 100 µM (inactive) throughout.
As to `C/C(=C\CNc1ncnc2c1ncn2C1CCCCO1)COP(=O)(O)O` (centres undefined), the GI50 is > 100 µM (inactive) with RPMI-8226; > 100 µM (inactive) with NCI-H23; > 100 µM (inactive) with UACC-257; greater than 100 µM with HCT-15; > 100 µM (inactive) with OVCAR-5; > 100 µM (inactive) in the experiment with KM12. Further, the GI50 with NCI-H522, in the experiment on SK-MEL-5, in the experiment on 786-0, in the experiment on M14, in the experiment with NCI-H226 and in the experiment on IGROV-1 was > 100 µM (inactive) each time. The GI50 in the experiment with Malme-3M, in the experiment on HCT-116, in the experiment with SNB-19 and in the experiment on OVCAR-4 was > 100 µM (inactive) throughout.
In the case of `CCOC(=O)C=C1CCN(C(=O)c2ccccc2)CC1`, the GI50 was > 100 µM (inactive) in the experiment with RPMI-8226; > 100 µM (inactive) with NCI-H23; > 100 µM (inactive) with A498; > 100 µM (inactive) in the experiment on UACC-257; greater than 100 µM in the experiment on HCT-15; > 100 µM (inactive) with OVCAR-5. The GI50 in the experiment with KM12, with SK-MEL-5, in the experiment with 786-0, with M14, with IGROV-1 and with Malme-3M was > 100 µM (inactive) throughout. Also, the GI50 with HCT-116, in the experiment with SNB-19 and in the experiment with OVCAR-4 was > 100 µM (inactive) each time.
`CC(C)(C)c1ccc2c(c1)C(O)(c1ccccc1)c1cc(C(C)(C)C)ccc1C2(O)C(F)(F)F` (centres undefined): the GI50 is 1.81 µM (inactive) with NCI-H23; 1.83 µM (inactive) with A498; 2.33 µM (inactive) with UACC-257; 1.39 µM in the experiment on HCT-15; 1.66 µM (inactive) with OVCAR-5; 1.93 µM (inactive) with KM12. Besides, the GI50 in the experiment with NCI-H522 is 1.64 µM (inactive); in the experiment on 786-0, 1.88 µM (inactive); with M14, 1.92 µM (inactive); in the experiment on NCI-H226, 1.05 µM (active); in the experiment on IGROV-1 it was 2.15 µM (inactive); with Malme-3M it was 2.51 µM (inactive). For the same molecule, the results for the GI50 in the experiment on HCT-116, in the experiment with SNB-19 and with OVCAR-4 were 1.87 µM (inactive), 2.27 µM (inactive) and 1.83 µM (inactive), respectively.
Regarding `COc1ccc2c(c1)N1CCc3cc(OC)c(OC)cc3C1C2` (centres undefined), the GI50 in the experiment with NCI-H23 is 50.1 µM (inactive); with A498 it was 41.4 µM (inactive); in the experiment on UACC-257, 57.9 µM (inactive); in the experiment with KM12, 89.1 µM (inactive); with NCI-H522 it was 23.7 µM (inactive); with 786-0 it was 54.6 µM (inactive). For the same molecule, the GI50 in the experiment on NCI-H226 was 35.5 µM (inactive); in the experiment with IGROV-1, 28.4 µM (inactive); with Malme-3M, 30.5 µM (inactive); in the experiment on SNB-19 it was > 100 µM (inactive); in the experiment with OVCAR-4 it was 33.8 µM (inactive).
In the case of `O=c1[nH]c(=O)n(C2CC(O)C(CO)O2)cc1C#Cc1ccc(F)cc1` (centres undefined), the GI50 was > 100 µM (inactive) in the experiment on RPMI-8226; > 100 µM (inactive) with NCI-H23; > 100 µM (inactive) in the experiment with UACC-257; greater than 100 µM in the experiment on HCT-15; > 100 µM (inactive) with OVCAR-5; > 100 µM (inactive) in the experiment with KM12. For the same molecule, the GI50 with NCI-H522, with SK-MEL-5, in the experiment on 786-0, with M14, with NCI-H226 and in the experiment on IGROV-1 was > 100 µM (inactive) each time. For the same molecule, the GI50 in the experiment with Malme-3M was > 100 µM (inactive); with SNB-19 it was > 100 µM (inactive); in the experiment with OVCAR-4, 25.8 µM (inactive).
In the case of `Cc1ccc(NC(=O)CSc2nnc(-c3ccc(/N=C\c4ccc(Cl)cc4)cc3)o2)cc1`, the GI50 in the experiment on RPMI-8226 was > 100 µM (inactive); in the experiment with NCI-H23, > 100 µM (inactive); with UACC-257 it was > 100 µM (inactive); in the experiment with HCT-15, greater than 100 µM; in the experiment with KM12 it was > 100 µM (inactive); with NCI-H522, 34.3 µM (inactive). Moreover, the GI50 in the experiment with SK-MEL-5, with 786-0, with M14, in the experiment on NCI-H226, in the experiment on Malme-3M and in the experiment on HCT-116 was > 100 µM (inactive) in each case. Besides, the GI50 in the experiment on SNB-19 and in the experiment on OVCAR-4 was > 100 µM (inactive) each time.
Turning to `O=C1OC(c2ccccc2)=N/C1=C\c1ccc2ccccc2c1`, the GI50 in the experiment on RPMI-8226 is > 100 µM (inactive); with NCI-H23, > 100 µM (inactive); in the experiment on A498 it was > 100 µM (inactive); with UACC-257, > 100 µM (inactive); with HCT-15 it was greater than 100 µM; with OVCAR-5 it was > 100 µM (inactive). Moreover, the GI50 with KM12, in the experiment with NCI-H522, with SK-MEL-5, in the experiment with 786-0, with M14 and with IGROV-1 was > 100 µM (inactive) each time. Besides, the GI50 in the experiment with Malme-3M, with HCT-116, in the experiment on SNB-19 and with OVCAR-4 was > 100 µM (inactive) each time.
As for `CCOC(=O)c1nc(C)oc1C(F)(F)F`, the GI50 in the experiment with NCI-H23 is > 100 µM (inactive); in the experiment on A498, > 100 µM (inactive); with UACC-257, > 100 µM (inactive); in the experiment with HCT-15, greater than 100 µM; in the experiment with OVCAR-5, > 100 µM (inactive); with KM12, > 100 µM (inactive). Further, the GI50 in the experiment on NCI-H522, with 786-0, in the experiment with M14, in the experiment with NCI-H226, in the experiment on IGROV-1 and with Malme-3M was > 100 µM (inactive) in each case. Further, the GI50 with HCT-116, in the experiment on SNB-19 and in the experiment with OVCAR-4 was > 100 µM (inactive) each time.
As to `COCOC1CCCC[C@@]1(OCCOCCO[C@@]1(c2ccccc2)CCCC[C@H]1OCOC)c1ccccc1` (some centres undefined), the GI50 in the experiment on RPMI-8226 was > 100 µM (inactive); in the experiment on NCI-H23 it was > 100 µM (inactive); with UACC-257, > 100 µM (inactive); in the experiment on HCT-15, greater than 10 µM; in the experiment with OVCAR-5 it was > 100 µM (inactive); in the experiment with KM12 it was > 100 µM (inactive). Besides, the GI50 with NCI-H522 was > 100 µM (inactive); in the experiment on 786-0, 46.6 µM (inactive); in the experiment on M14, 44.7 µM (inactive); in the experiment on NCI-H226, > 100 µM (inactive); in the experiment on IGROV-1 it was > 100 µM (inactive); in the experiment on Malme-3M it was > 100 µM (inactive). Further, the GI50 with HCT-116, in the experiment on SNB-19 and in the experiment with OVCAR-4 was > 100 µM (inactive) each time.
For the molecule `ONc1ncnc2[nH]cnc12`, the GI50 was 58.2 µM (inactive) in the experiment on RPMI-8226; > 100 µM (inactive) in the experiment with NCI-H23; > 100 µM (inactive) in the experiment on UACC-257; greater than 100 µM in the experiment on HCT-15; > 100 µM (inactive) in the experiment with OVCAR-5; > 100 µM (inactive) in the experiment on KM12. Also, the GI50 in the experiment on NCI-H522, in the experiment on SK-MEL-5, in the experiment on 786-0, in the experiment on M14, in the experiment on NCI-H226 and with IGROV-1 was > 100 µM (inactive) throughout. Besides, the GI50 in the experiment on Malme-3M, with HCT-116, with SNB-19 and in the experiment with OVCAR-4 was > 100 µM (inactive) in each case.
